Measured values published in US20200247849A1, “PEPTIDE AGONISTS AND ANTAGONISTS OF TLR4 ACTIVATION” (PEPTICOM LTD, priority 2016, published 2020).
Non-standard residues stand in square brackets, D forms with d. No end group written: not given here. Chg = N[C@H](C(=O)O)C1CCCCC1; Nphe = O=C(O)CNCc1ccccc1; Ava = NCCCCC(=O)O

Tests used:
[1] = system: TLR4 with MD2 or CD14 co-receptor; assay: Reporter gene (SEAP) PAMP assay in NIH3T3 cells expressing TLR4 with MD2 or CD14 co-receptor; assay type: cell-based; design: key to PAMP assay (NIH3T3 cells) Induction with compound alone / PAMP assay (NIH3T3 cells) Induction with compound + LPS: 0: no effect of the compound alone/no effect of the compound in addition to LPS alone; +: small effect of the compound alone/small effect of the compound in addition to LPS alone; ++: intermediate effect of the comp. alone/intermediate effect of the comp. in add. to LPS alone; +++: strong effect of the compound alone/strong effect of the compound in addition to LPS alone; conditions: for Co-Receptor/s: co-receptor (MD2/CD14) via which the effect occurs; for Co-Receptor/s / Activity: summary of FIGS. 6A-6V; for Activity: type of effect (activation/inhibition) on TLR4
From the text: FIGS. 6A-6V show the dose response inhibitor/activator effects of the designed peptides using a reporter gene assay. The reporter gene assay is composed of NIH3T3 cells transfected with either MD2 or CD14 along with TLR4 and the NF-κB-inducible reporter gene Secreted Alkaline Phosphatase (SEAP) to monitor TLR4 activation (Burger-[…] al. 2010, A new cell-based innate immune receptor assay for the examination of receptor activity, ligand specificity, signaling pathways and the detection of pyrogens. […] The receptors are coupled to for the detection of inhibitory activity, cells were treated with the peptide prior to exposure to LPS and the response to LPS is measured at variable peptide doses (as labeled). The detection of cell activation was performed using the peptide alone, at variable doses, as indicated in the respective graphs. The following presents in more details the experimental procedures. Experimental setup: The cell-based Assay is performed with different NIH3T3 reporter cell lines (NIH 3T3 PRR SEAP-TLR4/CD14 or -TLR4/MD2) and the control cell line NIH 3T3 SEAP. The NIH3T3 SEAP cell line is used in order to determine the background of the alkaline phosphatase expression. It is a cell line stably transfected with only the reporter gene plasmid. For each assay a vial of the master cell bank is revitalized and seeded in a standard cell culture flask (75 cm^2 T-Flask) at day one. Cells are cultured in 20 ml culture media (DMEM supplemented with 10% FCS (heat inactivated), 50 units/ ml penicillin, 0.05 mg/ ml streptomycin and 2 mmol/ L L-glutamine). The cells are cultured at 37° C. in a 5% CO2 humidified atmosphere. At Day 1: For the PAMP Assay cells are seeded in a 96-well plate at a density of 0.3.10^5 cells/well in a final volume of 100 μl culture media (DMEM, 10% FCS (heat inactivated)). To ensure equal culture conditions the 96-well cell culture plates are placed side by side and cultivated in a humidified CO2 incubator (37° C. and 5% CO2). […] After a cultivation period of 24 h the media is removed and replaced with the respective volume of fresh media (DMEM, 0.5% FCS (heat inactivated)).The lyophilized peptides are stored in a freezer at -20° C. upon arrival. For the experiments they are dissolved in DMSO (to the highest possible concentration). Before opening the peptides are allowed to equilibrate to room temperature (in order to reduce the uptake of moisture). For each experiment the stock solution is diluted in DMEM to the appropriate working concentration. […] Sonication was also used to help dissolve the peptides. Immediately after replacing the media, the diluted peptides are applied in a serial dilution to the cells and directly after that the agonist is added to the cells. After adding peptide and […] the final volume in each well of a 96 well plate amounts 100 μl/well. The culture medium containing 0.5% FCS is used as a negative reference item. The induction is performed for 18 h at 37° C. and 5% CO2. At Day 3: To determine the final SEAP value, 50 μl of the supernatant is carefully transferred in a new 96-well plate (Greiner-F-plate) and 50 μl of the substrate (pNPP; p-nitrophenyl phosphate) is added. SEAP catalyzes the hydrolysis of pNPP to the final product para-nitrophenol (yellow) which can be detected by a photometric analysis using an UV-VIS reader at 405 nm. […] The results of FIGS. 6A-6V with respect to peptide activity are summarized in Table 1 above with respect to the type of effect of the respective peptide (activation/inhibition) and with respect to the corresponding co-receptor (MD2/CD14). Data concerning SEQ ID No. 22 with respect to co-receptor CD14 is in preparation.

[2] = system: whole human blood; assay: IL-1β ELISA after 24-hour incubation with whole human blood; assay type: cell-based; design: key: 0: no effect of the compound alone/no effect of the compound in addition to LPS alone; +: small effect of the compound alone/small effect of the compound in addition to LPS alone; ++: intermediate effect of the comp. alone/intermediate effect of the comp. in add. to LPS alone; +++: strong effect of the compound alone/strong effect of the compound in addition to LPS alone; conditions: for IL-1β ELISA after blood activation Induction with compound + LPS: LPS 100 pg/ml
Description: One attribute of TLR-4 activation is the release of the pro-inflammatory cytokine Interleukin-1β (IL1β). Several of our discovered peptides were tested for IL1β induction by ELISA following a 24-hour incubation with whole human blood. IL1β induction was measured with increasing dosage of the peptides alone, or with a fixed dosage of LPS (100 pg/ml).

Substance | Co-Receptor/s [1] | Activity [1] | PAMP assay (NIH3T3 cells) Induction with compound + LPS [1] | PAMP assay (NIH3T3 cells) Induction with compound alone [1] | IL-1β ELISA after blood activation Induction with compound + LPS [2] | IL-1β ELISA after blood activation Induction with compound alone [2]
c[geldkftm] (all D-amino acids) (cyclo(G[dE][dL][dD][dK][dF][dT][dM]); SMILES CSCC[C@H]1NC(=O)[C@@H]([C@H](C)O)NC(=O)[C@@H](Cc2ccccc2)NC(=O)[C@@H](CCCCN)NC(=O)[C@@H](CC(=O)O)NC(=O)[C@@H](CC(C)C)NC(=O)[C@@H](CCC(=O)O)NC(=O)CNC1=O) [SEQ ID No. 21] | MD2/CD14 | Activator |  |  |  | 
c[SWEFLW] (cyclic; Inhibitor, cyclic) [SEQ ID No. 13] | MD2/CD14 | Inhibitor |  |  |  | 
RYETMSIMIKSGGKG-(methyl group replacing C-terminus) [SEQ ID No. 1 (M3)] | MD2/CD14 | Activator | + | + | 0 | 0
RYETMSIMIKSGGKY-(methyl group replacing C-terminus) (RYETMSIMIKSGGKY-CH3) [SEQ ID No. 1 (M2)] | MD2/CD14 | Activator | + | + | 0 | 0
ILYKSLKWM (Activator) [SEQ ID No. 5] | MD2/CD14 | Activator |  |  |  | 
(N′) Chg-2Leu-3Tyr-4Met-5Ser-6Leu-7Lys-8Trp-9Met (C′) ([Chg]LYMSLKWM) [SEQ ID No. 4 (M2)] | MD2/CD14 | Activator | ++ | ++ | +++ | +
c[SIWDTMW] (cyclic; Inhibitor, cyclic) [SEQ ID No. 14] | MD2 | Inhibitor |  |  |  | 
PLWMMIKSMGSMMEMKK (Activator) [SEQ ID No. 3] | MD2 | Activator |  |  |  | 
c[MLSFRM] (cyclic; Activator, cyclic) [SEQ ID No. 6] | MD2/CD14 | Activator | ++ | ++ | +++ | +
RYETMSIMIKSGGKG (RYETMSIMIKSGGKY; Activator) [SEQ ID No. 1] | MD2/CD14 | Activator |  |  |  | 
c[IGFMMMKKEF] (cyclic; Activator, cyclic) [SEQ ID No. 8] | MD2/CD14 | Activator |  |  |  | 
rmmmw (all D-amino acids, CH3 group replaces C-term) ([dR][dM][dM][dM][dW]-CH3) [SEQ ID No. 16] | MD2/CD14 | Activator |  |  |  | 
c[gwwwral] (all D-amino acids) (cyclo(G[dW][dW][dW][dR][dA][dL]); SMILES CC(C)C[C@H]1NC(=O)[C@@H](C)NC(=O)[C@@H](CCCNC(=N)N)NC(=O)[C@@H](Cc2c[nH]c3ccccc23)NC(=O)[C@@H](Cc2c[nH]c3ccccc23)NC(=O)[C@@H](Cc2c[nH]c3ccccc23)NC(=O)CNC1=O) [SEQ ID No. 20] | MD2/CD14 | Inhibitor |  |  |  | 
KKLMLII (at the C-terminus CH3 replace COOH) (KKLMLII-CH3) [SEQ ID No. 12] | MD2/CD14 | Inhibitor |  |  |  | 
tiymmmtmkg (all D-amino acids, both isoleucine chiral centers in D-enantiomer) [SEQ ID No. 18] | CD14 | Activator |  |  |  | 
MIPYGMRMM (Inhibitor) [SEQ ID No. 10] | MD2 | Inhibitor |  |  |  | 
1(N′) Ava-OH-2Leu-3Tyr-4Met-5Ser-6Leu-7Lys-8Trp-9Met (C′) ([Ava]LYMSLKWM; also: Ava-OH) [SEQ ID No. 4 (M1)] | MD2/CD14 | Activator | ++ | ++ | +++ | +
RYETMSIMIKSGGKY (not fully specified) [SEQ ID No. 1 (M1)] | MD2/CD14 | Activator | + | + | +++ | ++
ILYMSLKWM (Activator) [SEQ ID No. 4] | MD2/CD14 | Activator | +++ | + | +++ | 0
c[gwlwrsl] (all D-amino acids) (cyclo(G[dW][dL][dW][dR][dS][dL]); SMILES CC(C)C[C@H]1NC(=O)[C@@H](CO)NC(=O)[C@@H](CCCNC(=N)N)NC(=O)[C@@H](Cc2c[nH]c3ccccc23)NC(=O)[C@@H](CC(C)C)NC(=O)[C@@H](Cc2c[nH]c3ccccc23)NC(=O)CNC1=O) [SEQ ID No. 19] | MD2/CD14 | Activator |  |  |  | 
wwikd (all D-amino acids, both isoleucine chiral centers in D-enantiomer) [SEQ ID No. 17] | MD2/CD14 | Activator |  |  |  | 
c[gfwseeeksl] (all D-amino acids) (cyclo(G[dF][dW][dS][dE][dE][dE][dK][dS][dL]); SMILES CC(C)C[C@H]1NC(=O)[C@@H](CO)NC(=O)[C@@H](CCCCN)NC(=O)[C@@H](CCC(=O)O)NC(=O)[C@@H](CCC(=O)O)NC(=O)[C@@H](CCC(=O)O)NC(=O)[C@@H](CO)NC(=O)[C@@H](Cc2c[nH]c3ccccc23)NC(=O)[C@@H](Cc2ccccc2)NC(=O)CNC1=O) [SEQ ID No. 22] | MD2/CD14 | Activator |  |  |  | 
EWGWRMII (Activator) [SEQ ID No. 2] | MD2/CD14 | Activator |  |  |  | 
c[IWSRSW] (cyclic; Inhibitor, cyclic) [SEQ ID No. 15] | MD2 | Inhibitor |  |  |  | 
(N′) 1(S)Glu-2(S)Trp-3Gly-4(S)Trp-5(S)Arg-6(S)Met-7(R,S)Ile-8Bzl(Gly) (C′) (EWGWRMI[Nphe]; also: Ile7 (R,S)) [SEQ ID No. 2 (M1)] | MD2/CD14 | Activator |  |  |  | 
